According to patent US11926628B2 (Gilead Sciences, Inc., priority 2021, dated 2024):

How the values were obtained:
[1] = test system: Jurkat NFκB-luciferase cells; test: Jurkat NFκB-Luciferase Assay; assay type: cell-based; conditions: Homo sapiens; Jurkat NFκB-luciferase cells activated with anti-CD3 antibody (OKT3), 2.5 hrs at 37° C.; geometric mean; read-out: DGK NFKb Luciferase EC50
How it was run: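 Jurkat NFκB-luciferase reporter cells stimulated on plate-bound anti-CD3 (5 ug/ml coating) with compound, 2.5 hrs at 37° C then 30 min at 25° C; luminescence read with One-Glo Ex. Normalized to DMSO (basal) and 1 micromolar compound (maximum) controls; EC50 from four-parameter fit, geometric mean across experiments.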

human DGKα = human DGKα (Homo sapiens (Human), UniProt P23743); test: DGKα Biochemical Activity Assay (ADP-Glo); conditions: recombinant DGKα 1 nM, 100 μM ATP, 18:1 DAG/POPS/octylglucoside micelles, 1 hour at 25° C.; geometric mean; read-out: HTBS DGKa 1X ATP KM IC50
Sequence of human DGKα (P23743 whole entry): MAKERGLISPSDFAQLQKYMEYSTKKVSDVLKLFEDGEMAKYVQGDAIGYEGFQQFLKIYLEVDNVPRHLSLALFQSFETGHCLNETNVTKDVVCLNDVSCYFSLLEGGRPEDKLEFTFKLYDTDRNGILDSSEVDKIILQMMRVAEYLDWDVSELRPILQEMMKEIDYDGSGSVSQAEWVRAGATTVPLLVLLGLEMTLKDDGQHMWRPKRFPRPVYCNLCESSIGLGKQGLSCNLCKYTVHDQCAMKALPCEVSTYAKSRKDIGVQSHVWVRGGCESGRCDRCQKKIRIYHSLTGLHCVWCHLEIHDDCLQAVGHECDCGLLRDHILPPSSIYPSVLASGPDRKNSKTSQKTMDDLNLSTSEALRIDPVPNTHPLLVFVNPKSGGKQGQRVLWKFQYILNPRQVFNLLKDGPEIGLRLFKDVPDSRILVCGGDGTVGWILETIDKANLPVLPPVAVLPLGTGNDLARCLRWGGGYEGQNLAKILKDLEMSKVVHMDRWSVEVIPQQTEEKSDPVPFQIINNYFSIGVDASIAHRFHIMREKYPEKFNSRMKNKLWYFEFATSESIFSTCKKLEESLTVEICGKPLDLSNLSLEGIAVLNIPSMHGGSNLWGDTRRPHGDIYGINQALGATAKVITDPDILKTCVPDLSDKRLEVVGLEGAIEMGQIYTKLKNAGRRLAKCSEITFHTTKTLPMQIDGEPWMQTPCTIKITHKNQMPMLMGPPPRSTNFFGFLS
How it was run: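 Recombinant DGKα (1 nM final) was preincubated with compound for 15 min, then reacted for 1 h at 25 °C with 100 μM ATP and octylglucoside micelles of 0.85 mM 18:1 DAG and 6.75 mM POPS in pH 7.2 MOPS with 5 mM MgCl2. ADP formed was read by ADP-Glo luminescence. IC50 came from four-parameter fits normalized to DMSO and 50 μM CU3, and values were geometric means.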

| Structure (SMILES) | EC50 [1] | IC50 (human DGKα) |
| --- | --- | --- |
| CN(c1cccc(-c2ccc(N3CCCS3(=O)=O)cc2)c1)c1nc2nncn2c2cnccc12 [Example 59, N-[3-[4-(1,1-dioxo-1,2-thiazolidin-2-yl)phenyl]phenyl]-N-methyl-2,4,5,7,12-pentazatricyclo[7.4.0.02,6]trideca-1(13),3,5,7,9,11-hexaen-8-amine] | 121 nM | 45.2 nM |
| Cc1nnc2nc(N3CCCCc4c(C#CC(C)(C)C(C)(F)F)cccc43)c3c(F)cncc3n12 [Example 63, 5-(6-(4,4-difluoro-3,3-dimethylpent-1-yn-1-yl)-2,3,4,5-tetrahydro-1H-benzo[b]azepin-1-yl)-6-fluoro-1-methylpyrido[4,3-e][1,2,4]triazolo[4,3-a]pyrimidine] | 1.09 nM | 11.6 nM |
| Cc1nnc2nc(N3CCCCc4c(C#CC5(C(C)(F)F)CC5)cccc43)c3c(F)cncc3n12 [Example 65, 5-(6-((1-(1,1-difluoroethyl)cyclopropyl)ethynyl)-2,3,4,5-tetrahydro-1H-benzo[b]azepin-1-yl)-6-fluoro-1-methylpyrido[4,3-e][1,2,4]triazolo[4,3-a]pyrimidine] | 0.337 nM | 22.7 nM |
| Cc1nnc2nc(N3CCCCc4c(C#CC(C)(C)O)cccc43)c3c(F)cncc3n12 [Example 66, 4-(1-(6-fluoro-1-methylpyrido[4,3-e][1,2,4]triazolo[4,3-a]pyrimidin-5-yl)-2,3,4,5-tetrahydro-1H-benzo[b]azepin-6-yl)-2-methylbut-3-yn-2-ol] | 15.9 nM | 6.14 nM |
| Cc1nnc2nc(N3CCCCc4c(C#CC5CC5)cccc43)c3c(F)cncc3n12 [Example 68, 5-(6-(cyclopropylethynyl)-2,3,4,5-tetrahydro-1H-benzo[b]azepin-1-yl)-6-fluoro-1-methylpyrido[4,3-e][1,2,4]triazolo[4,3-a]pyrimidine] | 1.19 nM | 7.67 nM |
| Cc1nnc2nc(N3CCCCc4c(Br)cccc43)c3c(F)cncc3n12 [Example 69, 5-(6-bromo-2,3,4,5-tetrahydro-1H-benzo[b]azepin-1-yl)-6-fluoro-1-methylpyrido[4,3-e][1,2,4]triazolo[4,3-a]pyrimidine] | 13.9 nM | 220 nM |
| Cc1nnc2nc(N3CCCOc4c(C#CC(C)(C)O)cccc43)c3c(F)cncc3n12 [Example 71, 4-(5-(6-fluoro-1-methylpyrido[4,3-e][1,2,4]triazolo[4,3-a]pyrimidin-5-yl)-2,3,4,5-tetrahydrobenzo[b][1,4]oxazepin-9-yl)-2-methylbut-3-yn-2-ol] | 304 nM | 18.5 nM |
| Cc1nnc2nc(N3CCCOc4c(C#CC5(C(F)(F)F)CC5)cccc43)c3c(F)cncc3n12 [Example 72, 5-(6-fluoro-1-methylpyrido[4,3-e][1,2,4]triazolo[4,3-a]pyrimidin-5-yl)-9-((1-(trifluoromethyl)cyclopropyl)ethynyl)-2,3,4,5-tetrahydrobenzo[b][1,4]oxazepine] | 3.03 nM | 7.4 nM |
| Cc1nnc2nc(N3CCCOc4c(Br)cccc43)c3c(F)cncc3n12 [Example 75, 9-bromo-5-(6-fluoro-1-methylpyrido[4,3-e][1,2,4]triazolo[4,3-a]pyrimidin-5-yl)-2,3,4,5-tetrahydrobenzo[b][1,4]oxazepine] | 48.2 nM | 357 nM |
| Cc1nnc2nc(N3CCOCc4c(C#CC(C)(C)O)cccc43)c3c(F)cncc3n12 [Example 77, 4-(1-(6-fluoro-1-methylpyrido[4,3-e][1,2,4]triazolo[4,3-a]pyrimidin-5-yl)-1,2,3,5-tetrahydrobenzo[e][1,4]oxazepin-6-yl)-2-methylbut-3-yn-2-ol] | 130 nM | 12.6 nM |
| Cc1nnc2nc(N3CCOCc4c(C#CC5(C)CC5)cccc43)c3c(F)cncc3n12 [Example 79, 1-(6-fluoro-1-methylpyrido[4,3-e][1,2,4]triazolo[4,3-a]pyrimidin-5-yl)-6-((1-methylcyclopropyl)ethynyl)-1,2,3,5-tetrahydrobenzo[e][1,4]oxazepine] | 2 nM | 2.28 nM |
| FC(F)(F)C1(C#Cc2cccc3c2CCCN3c2nc3nncn3c3cnccc23)CC1 [Example 83, 8-[5-[2-[1-(trifluoromethyl)cyclopropyl]ethynyl]-3,4-dihydro-2H-quinolin-1-yl]-2,4,5,7,12-pentazatricyclo[7.4.0.02,6]trideca-1(13),3,5,7,9,11-hexaene] | 1.76 nM | 14.2 nM |

Other lines, results leading:

| EC50 [1] | IC50 (human DGKα) | Structure (SMILES) |
| --- | --- | --- |
| 0.543 nM | 22.8 nM | CN(c1cccc(-c2ccc(C3CC3)cc2)c1)c1nc2nncn2c2cnccc12 [Example 61, N-[3-(4-cyclopropylphenyl)phenyl]-N-methyl-2,4,5,7,12-pentazatricyclo[7.4.0.02,6]trideca-1(13),3,5,7,9,11-hexaen-8-amine] |
| 27.7 nM | 159 nM | CN(c1cccc(-c2ccc(C3CC3)nc2)c1)c1nc2nncn2c2cnccc12 [Example 62, N-[3-(6-cyclopropyl-3-pyridyl)phenyl]-N-methyl-2,4,5,7,12-pentazatricyclo[7.4.0.02,6]trideca-1(13),3,5,7,9,11-hexaen-8-amine] |
| 1.24 nM | 3.96 nM | Cc1nnc2nc(N3CCCCc4c(C#CC5(C(F)F)CC5)cccc43)c3c(F)cncc3n12 [Example 67, 5-(6-((1-(difluoromethyl)cyclopropyl)ethynyl)-2,3,4,5-tetrahydro-1H-benzo[b]azepin-1-yl)-6-fluoro-1-methylpyrido[4,3-e][1,2,4]triazolo[4,3-a]pyrimidine] |
| 2.62 nM | 6.44 nM | Cc1nnc2nc(N3CCCOc4c(C#CC(C)(C)C(F)(F)F)cccc43)c3c(F)cncc3n12 [Example 70, 5-(6-fluoro-1-methylpyrido[4,3-e][1,2,4]triazolo[4,3-a]pyrimidin-5-yl)-9-(4,4,4-trifluoro-3,3-dimethylbut-1-yn-1-yl)-2,3,4,5-tetrahydrobenzo[b][1,4]oxazepine] |
| 3.45 nM | 4.17 nM | Cc1nnc2nc(N3CCCOc4c(C#CC5(C)CC5)cccc43)c3c(F)cncc3n12 [Example 73, 5-(6-fluoro-1-methylpyrido[4,3-e][1,2,4]triazolo[4,3-a]pyrimidin-5-yl)-9-((1-methylcyclopropyl)ethynyl)-2,3,4,5-tetrahydrobenzo[b][1,4]oxazepine] |
| 3.27 nM | 2.29 nM | Cc1nnc2nc(N3CCCOc4c(C#CC5CC5)cccc43)c3c(F)cncc3n12 [Example 74, 9-(cyclopropylethynyl)-5-(6-fluoro-1-methylpyrido[4,3-e][1,2,4]triazolo[4,3-a]pyrimidin-5-yl)-2,3,4,5-tetrahydrobenzo[b][1,4]oxazepine] |
| 1.41 nM | 6.09 nM | Cc1nnc2nc(N3CCOCc4c(C#CC(C)(C)C(F)(F)F)cccc43)c3c(F)cncc3n12 [Example 76, 1-(6-fluoro-1-methylpyrido[4,3-e][1,2,4]triazolo[4,3-a]pyrimidin-5-yl)-6-(4,4,4-trifluoro-3,3-dimethylbut-1-yn-1-yl)-1,2,3,5-tetrahydrobenzo[e][1,4]oxazepine] |
| 1.95 nM | 4.34 nM | Cc1nnc2nc(N3CCOCc4c(C#CC5(C(F)(F)F)CC5)cccc43)c3c(F)cncc3n12 [Example 78, 1-(6-fluoro-1-methylpyrido[4,3-e][1,2,4]triazolo[4,3-a]pyrimidin-5-yl)-6-((1-(trifluoromethyl)cyclopropyl)ethynyl)-1,2,3,5-tetrahydrobenzo[e][1,4]oxazepine] |
| 4.78 nM | 1.68 nM | Cc1nnc2nc(N3CCOCc4c(C#CC5CC5)cccc43)c3c(F)cncc3n12 [Example 80, 6-(cyclopropylethynyl)-1-(6-fluoro-1-methylpyrido[4,3-e][1,2,4]triazolo[4,3-a]pyrimidin-5-yl)-1,2,3,5-tetrahydrobenzo[e][1,4]oxazepine] |
| 46.7 nM | 151 nM | Cc1nnc2nc(N3CCOCc4c(Br)cccc43)c3c(F)cncc3n12 [Example 81, 6-bromo-1-(6-fluoro-1-methylpyrido[4,3-e][1,2,4]triazolo[4,3-a]pyrimidin-5-yl)-1,2,3,5-tetrahydrobenzo[e][1,4]oxazepine] |
| 1.3 nM | 10.3 nM | CC1(C#Cc2cccc3c2CCCN3c2nc3nncn3c3cnccc23)CC1 [Example 82] |
| 1.19 nM | 10.7 nM | CC(C)(C#Cc1cccc2c1CCCN2c1nc2nncn2c2cncc(F)c12)C(F)(F)F [Example 84, 10-fluoro-8-[5-(4,4,4-trifluoro-3,3-dimethyl-but-1-ynyl)-3,4-dihydro-2H-quinolin-1-yl]-2,4,5,7,12-pentazatricyclo[7.4.0.02,6]trideca-1(13),3,5,7,9,11-hexaene] |
| 12.7 nM | 13.4 nM | CC(C)(O)C#Cc1cccc2c1CCCN2c1nc2nncn2c2cncc(F)c12 [Example 85, 4-[1-(10-fluoro-2,4,5,7,12-pentazatricyclo[7.4.0.02,6]trideca-1(13),3,5,7,9,11-hexaen-8-yl)-3,4-dihydro-2H-quinolin-5-yl]-2-methyl-but-3-yn-2-ol] |
| 0.518 nM | 3.39 nM | CC1(C#Cc2cccc3c2CCCN3c2nc3nncn3c3cncc(F)c23)CC1 [Example 86, 10-fluoro-8-[5-[2-(1-methylcyclopropyl)ethynyl]-3,4-dihydro-2H-quinolin-1-yl]-2,4,5,7,12-pentazatricyclo[7.4.0.02,6]trideca-1(13),3,5,7,9,11-hexaene] |
